Measured values: PubChem BioAssay (NCI)
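1) Cells in 96-well plates. 2) Compound, 48 h, 5 concentrations. 3) Linear interpolation between surrounding doses. 4) Unreached endpoint = highest concentration. Definition used: TGI = concentration required for complete inhibition of growth.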

Columns and labels:
Experiment in all cases: inhibition of tumour cell growth, NCI panel, 48 h
OVCAR-5 ovarian = test system: OVCAR-5 ovarian
UACC-257 melanoma = test system: UACC-257 melanoma
HT29 colon = test system: HT29 colon
MCF7 breast = test system: MCF7 breast
NCI-H460 lung = test system: NCI-H460 lung
A498 renal = test system: A498 renal
KM12 colon = test system: KM12 colon
ACHN renal = test system: ACHN renal
HOP-62 NSCLC = test system: HOP-62 NSCLC
K-562 leukemia = test system: K-562 leukemia
UO-31 renal = test system: UO-31 renal
PC-3 prostate = test system: PC-3 prostate
U251 CNS = test system: U251 CNS
NCI/ADR-RES ovarian = test system: NCI/ADR-RES ovarian
SK-OV-3 ovarian = test system: SK-OV-3 ovarian
LOX IMVI melanoma = test system: LOX IMVI melanoma
SF-268 CNS = test system: SF-268 CNS
BT-549 breast = test system: BT-549 breast
RPMI-8226 leukemia = test system: RPMI-8226 leukemia
CAKI-1 renal = test system: CAKI-1 renal
NCI-H23 lung = test system: NCI-H23 lung
SF-539 CNS = test system: SF-539 CNS
SK-MEL-5 melanoma = test system: SK-MEL-5 melanoma
HCT-116 colon = test system: HCT-116 colon
A549 NSCLC = test system: A549 NSCLC
COLO 205 colon = test system: COLO 205 colon
EKVX NSCLC = test system: EKVX NSCLC
T-47D breast = test system: T-47D breast
SNB-75 CNS = test system: SNB-75 CNS
M14 melanoma = test system: M14 melanoma
SN12C renal = test system: SN12C renal
HL-60(TB) leukemia = test system: HL-60(TB) leukemia
MOLT-4 leukemia = test system: MOLT-4 leukemia
CCRF-CEM leukemia = test system: CCRF-CEM leukemia
SF-295 CNS = test system: SF-295 CNS
DU-145 prostate = test system: DU-145 prostate
HS 578T breast = test system: HS 578T breast
NCI-H522 lung = test system: NCI-H522 lung
OVCAR-3 ovarian = test system: OVCAR-3 ovarian
MDA-N = test system: MDA-N
SR leukemia = test system: SR leukemia
HCT-15 colon = test system: HCT-15 colon
MDA-MB-435 = test system: MDA-MB-435
OVCAR-4 ovarian = test system: OVCAR-4 ovarian
OVCAR-8 ovarian = test system: OVCAR-8 ovarian
TK-10 renal = test system: TK-10 renal
NCI-H226 lung = test system: NCI-H226 lung
SK-MEL-28 melanoma = test system: SK-MEL-28 melanoma
IGROV1 ovarian = test system: IGROV1 ovarian
SNB-19 CNS = test system: SNB-19 CNS
MDA-MB-231 breast = test system: MDA-MB-231 breast
SK-MEL-2 melanoma = test system: SK-MEL-2 melanoma
786-0 renal = test system: 786-0 renal
SW-620 colon = test system: SW-620 colon
HCC-2998 colon = test system: HCC-2998 colon
RXF 393 renal = test system: RXF 393 renal
HOP-92 NSCLC = test system: HOP-92 NSCLC
MALME-3M melanoma = test system: MALME-3M melanoma
UACC-62 melanoma = test system: UACC-62 melanoma

Measured: TGI

Cc1ccc2c(c1)[n+]([O-])c(N)n[n+]2[O-]
not listed: HCC-2998 colon | RXF 393 renal | HOP-92 NSCLC | MALME-3M melanoma | UACC-62 melanoma
> 100 µM: all other assays above

O=c1c2ccccc2nc(Nc2cccc(Cl)c2)n1/N=C/C=C/c1ccccc1
74.7 µM: MCF7 breast
97.4 µM: PC-3 prostate
not listed: A498 renal
> 100 µM: all other assays above

C=C1C(=O)O[C@@]23C1CC[C@@H](C)C2CC[C@@]1(C)OC31 (some centres not stated)
24.9 µM: MCF7 breast
30.3 µM: HCT-15 colon
15.9 µM: CCRF-CEM leukemia
18.4 µM: CAKI-1 renal
26.6 µM: LOX IMVI melanoma | 786-0 renal
12.3 µM: SK-MEL-5 melanoma
27.1 µM: ACHN renal | UACC-62 melanoma
33.2 µM: SR leukemia
12.2 µM: SF-539 CNS
45.7 µM: KM12 colon
23.7 µM: BT-549 breast
19.3 µM: U251 CNS
16.2 µM: HCC-2998 colon
13.4 µM: OVCAR-3 ovarian
23.1 µM: MDA-N
12.9 µM: M14 melanoma
35.5 µM: DU-145 prostate
20.2 µM: NCI-H522 lung
48.4 µM: NCI/ADR-RES ovarian
56.5 µM: OVCAR-8 ovarian
3.68 µM: COLO 205 colon
> 100 µM: A549 NSCLC
35.2 µM: NCI-H460 lung
21.5 µM: SN12C renal
46.5 µM: HS 578T breast
32.3 µM: IGROV1 ovarian
39.9 µM: RXF 393 renal
19.2 µM: T-47D breast
59.1 µM: A498 renal
16.8 µM: RPMI-8226 leukemia | TK-10 renal
8.52 µM: SNB-75 CNS
24.4 µM: UACC-257 melanoma
23.9 µM: SK-MEL-2 melanoma
37.5 µM: SW-620 colon
48.9 µM: SF-295 CNS
18.7 µM: PC-3 prostate
20.6 µM: NCI-H23 lung
24.2 µM: HOP-92 NSCLC
66.1 µM: K-562 leukemia
47.9 µM: NCI-H226 lung
25.3 µM: OVCAR-4 ovarian
21.3 µM: HCT-116 colon
47.4 µM: SNB-19 CNS
31.8 µM: MOLT-4 leukemia
30.5 µM: EKVX NSCLC
26.7 µM: OVCAR-5 ovarian
34.3 µM: SF-268 CNS
10.6 µM: HL-60(TB) leukemia
18.5 µM: UO-31 renal
23 µM: MDA-MB-435
7.59 µM: MALME-3M melanoma
22.6 µM: SK-MEL-28 melanoma
39.3 µM: HOP-62 NSCLC
47.6 µM: SK-OV-3 ovarian
25.6 µM: HT29 colon

COCC1OC(N2C(=O)NC(=O)[C@@H]3C=C4CCCCC4=C[C@@H]32)C(OC)C1OC (some centres not stated)
not listed: CAKI-1 renal | NCI-H23 lung | SK-MEL-5 melanoma | COLO 205 colon | CCRF-CEM leukemia | HCC-2998 colon | RXF 393 renal
> 100 µM: all other assays above
